Data published in PMC7714403 (JCI Insight, 2020).

Tests used:
CHEK1 = biological target: T1, CHEK1 (Homo sapiens, UniProt O14757); assay: KdELECT binding assay
T1 construct: purchased Eurofins DiscoverX

[1] = tested on: primary FLT3-ITD/IDH2-R140Q murine leukemia cells; assay: CellTiterGlo viability assay, ex vivo; format: cell-based; settings: Mus musculus, 72 hours
Description: Drug treatments were carried out for 72 hours. Details are provided in the Supplemental Methods.
Cell viability of primary samples […]
For murine or human primary AML cells, 100,000 cells/well were plated in a 96-well plate and treated with increasing concentrations of drug. Cell viability, via trypan blue, was measured every 24 hours. If the viability fell below 50% or at 72 hours of treatment, whichever came earlier, cell viability of each plate was measured via

[2] = tested on: primary FLT3-ITD/IDH2-R140Q murine leukemia cells; assay: CFU assay; format: cell-based, mouse; settings: for Colony formation: 20 nM and 50 nM
Description: (§1) For human primary CFU assays, cells were cultured in MethoCult H4035 Optimum without EPO (Stemcell Technologies). For mouse primary CFU assays, cells were directly cultured in MethoCult M3231 (Stemcell Technologies) supplemented with 45 ng/mL of murine IL-6 (mIL-6), mIL-3, and mSCF. Both human and mouse primary cells 10,000 cells were plated in duplicate for each drug concentration. For cell line CFU assays, MV4-11 cells were treated with drugs in the presence of 20 ng/mL IL-3, GM-CSF, or FGF2. Cells were plated in MethoCult H4230 (Stemcell Technologies) in duplicates at 250 cells/plate. […] Colonies were identified as clusters containing 40 or more cells. For CFU assays using human primary CD34^+ cells, umbilical cord blood was obtained from the OSU Comprehensive Cancer Center (CCC) Leukemia Tissue Bank Shared Resource, and mononuclear cells were isolated by using density gradient centrifugation. CD34^+ cells were purified using the CD34 UltraPure MicroBead Kit (Miltenyi Biotec) according to the manufacturer’s instructions. CFU assay with CD34^+ cells was performed as described above, and the total number of colonies were counted after 7–10 days.

[3] = tested on: primary FLT3-ITD/MLL-PTD murine leukemia cells; assay: CFU assay; format: cell-based, mouse; settings: 20 nM and 50 nM
Description: as §1

MV4-11 cells = assay: CFU assay with IL-3, GM-CSF or FGF2; format: cell-based, human; settings: 7-day MV4-11 CFU assay
Description: For human primary CFU assays, cells were cultured in MethoCult H4035 Optimum without EPO (Stemcell Technologies). For mouse primary CFU assays, cells were directly cultured in MethoCult M3231 (Stemcell Technologies) supplemented with 45 ng/mL of murine IL-6 (mIL-6), mIL-3, and mSCF. Both human and mouse primary cells 10,000 cells were plated in duplicate for each drug concentration. For cell line CFU assays, MV4-11 cells were treated with drugs in the presence of 20 ng/mL IL-3, GM-CSF, or FGF2. Cells were plated in MethoCult H4230 (Stemcell Technologies) in duplicates at 250 cells/plate. Plates were placed in a 37°C incubator for 7 or 14 days for human cell lines and for mouse or human primary cells, respectively. Colonies were identified as clusters containing 40 or more cells. For CFU assays using human primary CD34^+ cells, umbilical cord blood was obtained from the OSU Comprehensive Cancer Center (CCC) Leukemia Tissue Bank Shared Resource, and mononuclear cells were isolated by using density gradient centrifugation. CD34^+ cells were purified using the CD34 UltraPure MicroBead Kit (Miltenyi Biotec) according to the manufacturer’s instructions. CFU assay with CD34^+ cells was performed as described above, and the total number of colonies were counted after 7–10 days.

[4] = tested on: MV4-11, MOLM13, and MOLM13-RES cells; assay: CD11b expression assay; format: cell-based, human; settings: 20 nM, 72 hours
Description: (§2) Apoptosis and CD11b expression assays
(§3) At indicated time points, cells were collected and washed with PBS. CD11b expression was measured using anti-CD11b -APC antibody (BioLegend, San Diego, CA). Each sample was suspended in 100uL of FACS buffer (PBS + 4% FBS) with 1uL of antibody, incubated on ice for 15 minutes in the dark and washed once in PBS. DAPI (final concentration 1ug/mL [ThermoFisher Scientific]) was added to each sample as a viability dye. For apoptosis assay, cells were incubated with annexin V-APC (BioLegend) according to manufacturer’s instructions. CD11b expression and apoptosis were measured by BD LSR II flow cytometer. Two-color cytometry was performed, and data were […]
(§4) points, cells were collected and washed with 0.1% EDTA PBS (Ricca Chemical Company, Arlington, TX) followed by only PBS. Cells were then fixed on ice with ice-cold 70% ethanol for 30 minutes . Cells were either stored at -20°C for up to 1 month or processed immediately. Cells were spun down at 450 x g for 10 minutes and stained

OCI-AML3 cells = assay: CD11b expression assay; format: cell-based, human; settings: 20 nM and 50 nM, 72 hours
Description: as §2, §3, §4

CDK5 = CDK5 (Homo sapiens, UniProt Q00535); assay: KiNativ, OCI cells live cell; format: cell-based; settings: 2 h
Sequence of CDK5 (Q00535 whole entry): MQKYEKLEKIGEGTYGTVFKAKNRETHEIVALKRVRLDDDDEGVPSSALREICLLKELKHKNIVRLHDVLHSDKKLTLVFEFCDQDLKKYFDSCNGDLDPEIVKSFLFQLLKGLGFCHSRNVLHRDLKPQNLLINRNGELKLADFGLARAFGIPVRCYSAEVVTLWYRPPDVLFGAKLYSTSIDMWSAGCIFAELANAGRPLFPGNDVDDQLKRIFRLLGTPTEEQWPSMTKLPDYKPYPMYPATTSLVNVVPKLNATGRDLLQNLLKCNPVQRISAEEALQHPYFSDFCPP

CHED = CHED (Homo sapiens, UniProt Q14004); assay: KiNativ, OCI cells live cell; format: cell-based; settings: labeling site Lys2, peptide DIKCSNILLNNR
Sequence of CHED (Q14004 whole entry): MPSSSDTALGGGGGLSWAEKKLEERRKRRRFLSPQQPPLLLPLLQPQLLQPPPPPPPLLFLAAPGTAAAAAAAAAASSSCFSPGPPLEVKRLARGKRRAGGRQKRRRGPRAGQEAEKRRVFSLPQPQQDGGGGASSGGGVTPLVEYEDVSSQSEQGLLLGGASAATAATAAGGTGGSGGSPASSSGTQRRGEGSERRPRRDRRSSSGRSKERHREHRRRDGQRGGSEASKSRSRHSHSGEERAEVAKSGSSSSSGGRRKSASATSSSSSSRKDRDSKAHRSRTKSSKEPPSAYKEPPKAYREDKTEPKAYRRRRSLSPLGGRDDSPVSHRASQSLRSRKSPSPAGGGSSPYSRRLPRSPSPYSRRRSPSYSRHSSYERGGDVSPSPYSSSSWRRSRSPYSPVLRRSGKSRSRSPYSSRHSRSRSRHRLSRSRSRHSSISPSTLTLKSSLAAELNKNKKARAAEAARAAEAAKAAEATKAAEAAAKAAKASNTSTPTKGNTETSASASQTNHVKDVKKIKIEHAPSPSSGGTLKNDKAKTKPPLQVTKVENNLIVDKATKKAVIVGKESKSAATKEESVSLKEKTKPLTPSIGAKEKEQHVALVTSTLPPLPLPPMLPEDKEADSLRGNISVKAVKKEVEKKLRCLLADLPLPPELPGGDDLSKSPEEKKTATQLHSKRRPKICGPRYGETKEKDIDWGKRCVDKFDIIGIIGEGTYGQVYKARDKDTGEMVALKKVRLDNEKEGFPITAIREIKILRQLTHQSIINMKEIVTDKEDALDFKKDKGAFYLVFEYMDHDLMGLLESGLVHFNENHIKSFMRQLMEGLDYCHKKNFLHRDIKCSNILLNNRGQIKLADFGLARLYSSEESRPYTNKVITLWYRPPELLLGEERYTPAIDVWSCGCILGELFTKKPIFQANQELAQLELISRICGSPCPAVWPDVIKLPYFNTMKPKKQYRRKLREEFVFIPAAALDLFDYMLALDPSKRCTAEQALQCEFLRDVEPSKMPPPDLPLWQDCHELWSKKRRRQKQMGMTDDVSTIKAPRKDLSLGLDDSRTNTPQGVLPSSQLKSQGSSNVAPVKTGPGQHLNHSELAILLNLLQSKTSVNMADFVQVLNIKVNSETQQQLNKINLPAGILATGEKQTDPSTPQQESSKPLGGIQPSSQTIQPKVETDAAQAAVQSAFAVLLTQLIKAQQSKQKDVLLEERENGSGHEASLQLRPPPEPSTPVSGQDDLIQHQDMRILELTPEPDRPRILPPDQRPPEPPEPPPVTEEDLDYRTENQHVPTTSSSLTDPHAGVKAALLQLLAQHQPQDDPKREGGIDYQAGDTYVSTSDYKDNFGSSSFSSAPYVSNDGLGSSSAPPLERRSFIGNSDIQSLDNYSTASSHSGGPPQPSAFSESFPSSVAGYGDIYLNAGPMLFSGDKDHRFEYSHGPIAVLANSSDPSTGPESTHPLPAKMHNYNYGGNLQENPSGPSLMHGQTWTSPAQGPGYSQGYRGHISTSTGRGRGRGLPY
Sequence of CHED (O75909 whole entry partner): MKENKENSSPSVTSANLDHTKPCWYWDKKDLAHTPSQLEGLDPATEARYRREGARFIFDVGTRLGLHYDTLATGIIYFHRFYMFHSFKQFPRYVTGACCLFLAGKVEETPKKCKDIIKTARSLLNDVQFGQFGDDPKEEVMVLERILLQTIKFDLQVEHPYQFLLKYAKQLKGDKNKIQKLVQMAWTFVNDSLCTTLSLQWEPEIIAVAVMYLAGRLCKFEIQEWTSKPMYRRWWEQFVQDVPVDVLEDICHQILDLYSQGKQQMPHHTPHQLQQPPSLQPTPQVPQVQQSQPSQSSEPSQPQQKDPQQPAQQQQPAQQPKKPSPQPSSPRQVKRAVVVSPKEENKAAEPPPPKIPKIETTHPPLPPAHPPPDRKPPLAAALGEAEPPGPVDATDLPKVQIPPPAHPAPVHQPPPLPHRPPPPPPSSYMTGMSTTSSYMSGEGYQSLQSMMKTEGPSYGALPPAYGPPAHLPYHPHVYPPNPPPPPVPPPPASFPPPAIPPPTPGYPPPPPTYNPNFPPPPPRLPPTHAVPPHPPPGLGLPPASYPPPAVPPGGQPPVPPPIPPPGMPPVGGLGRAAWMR

MELK = MELK (Homo sapiens, UniProt Q14680); assay: KiNativ, OCI cells live cell; format: cell-based; settings: 2 h, labeling site Lys2, peptide […]
Sequence of MELK (Q14680 whole entry): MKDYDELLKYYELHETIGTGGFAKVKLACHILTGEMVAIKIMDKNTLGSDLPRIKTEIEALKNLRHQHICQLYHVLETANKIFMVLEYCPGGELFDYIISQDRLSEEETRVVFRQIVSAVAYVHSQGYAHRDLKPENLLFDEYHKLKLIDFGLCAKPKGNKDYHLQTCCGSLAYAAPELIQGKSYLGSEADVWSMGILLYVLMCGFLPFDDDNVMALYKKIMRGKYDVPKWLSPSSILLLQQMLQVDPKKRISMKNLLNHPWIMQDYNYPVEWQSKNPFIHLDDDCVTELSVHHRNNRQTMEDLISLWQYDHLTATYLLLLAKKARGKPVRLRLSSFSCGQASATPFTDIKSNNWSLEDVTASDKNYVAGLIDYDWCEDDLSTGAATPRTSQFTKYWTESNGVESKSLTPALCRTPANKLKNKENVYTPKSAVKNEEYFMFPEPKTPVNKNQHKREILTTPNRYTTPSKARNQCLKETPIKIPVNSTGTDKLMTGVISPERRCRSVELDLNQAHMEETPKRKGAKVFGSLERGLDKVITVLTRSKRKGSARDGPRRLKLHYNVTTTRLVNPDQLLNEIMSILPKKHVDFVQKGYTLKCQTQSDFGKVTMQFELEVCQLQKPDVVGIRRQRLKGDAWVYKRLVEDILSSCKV

p38b = p38b (Homo sapiens, UniProt Q15759); assay: KiNativ, OCI cells live cell; format: cell-based; settings: 2 h, labeling site Other, peptide […]
Sequence of p38b (Q15759 whole entry): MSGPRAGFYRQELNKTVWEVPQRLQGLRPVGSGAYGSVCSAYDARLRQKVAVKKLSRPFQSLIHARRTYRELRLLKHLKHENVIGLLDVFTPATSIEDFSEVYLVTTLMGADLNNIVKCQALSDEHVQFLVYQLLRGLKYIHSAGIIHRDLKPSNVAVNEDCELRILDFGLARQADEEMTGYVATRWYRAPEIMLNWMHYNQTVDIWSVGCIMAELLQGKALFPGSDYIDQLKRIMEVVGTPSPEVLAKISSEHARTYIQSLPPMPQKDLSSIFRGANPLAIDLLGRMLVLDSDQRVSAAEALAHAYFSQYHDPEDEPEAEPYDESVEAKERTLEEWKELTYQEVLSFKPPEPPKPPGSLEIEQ

PCTAIRE2, PCTAIRE3 = assay: KiNativ, OCI cells live cell; format: cell-based, human; settings: labeling site Lys1, peptide SKLTENLVALKEIR
PFTAIRE2 = PFTAIRE2 (Homo sapiens, UniProt Q96Q40); assay: KiNativ, OCI cells live cell; format: cell-based; settings: 2 h, labeling site Lys2, peptide […]
PKCd = PKCd (Homo sapiens, UniProt Q05655); assay: KiNativ, OCI cells live cell; format: cell-based; settings: 2 h, labeling site Other, peptide […]
Sequence of PKCd (Q05655 whole entry): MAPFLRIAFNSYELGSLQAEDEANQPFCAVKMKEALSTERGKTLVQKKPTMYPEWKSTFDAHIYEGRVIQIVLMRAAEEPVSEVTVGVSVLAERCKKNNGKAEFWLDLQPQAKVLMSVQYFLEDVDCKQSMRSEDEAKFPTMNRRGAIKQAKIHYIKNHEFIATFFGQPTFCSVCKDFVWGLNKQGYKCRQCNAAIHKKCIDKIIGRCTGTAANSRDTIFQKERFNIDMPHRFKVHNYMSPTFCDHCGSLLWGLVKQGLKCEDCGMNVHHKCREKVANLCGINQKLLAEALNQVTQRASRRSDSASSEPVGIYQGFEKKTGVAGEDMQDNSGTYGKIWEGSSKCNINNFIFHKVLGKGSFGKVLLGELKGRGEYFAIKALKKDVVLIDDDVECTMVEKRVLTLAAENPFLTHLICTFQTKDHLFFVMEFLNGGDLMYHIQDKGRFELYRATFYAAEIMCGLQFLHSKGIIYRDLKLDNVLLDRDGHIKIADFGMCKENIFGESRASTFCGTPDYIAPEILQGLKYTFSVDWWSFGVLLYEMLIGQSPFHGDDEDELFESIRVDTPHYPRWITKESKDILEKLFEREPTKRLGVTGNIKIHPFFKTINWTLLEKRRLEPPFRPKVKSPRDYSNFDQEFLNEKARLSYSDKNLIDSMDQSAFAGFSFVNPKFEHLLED

PKCi = PKCi (Homo sapiens, UniProt P41743); assay: KiNativ, OCI cells live cell; format: cell-based; settings: 2 h
Sequence of PKCi (P41743 whole entry): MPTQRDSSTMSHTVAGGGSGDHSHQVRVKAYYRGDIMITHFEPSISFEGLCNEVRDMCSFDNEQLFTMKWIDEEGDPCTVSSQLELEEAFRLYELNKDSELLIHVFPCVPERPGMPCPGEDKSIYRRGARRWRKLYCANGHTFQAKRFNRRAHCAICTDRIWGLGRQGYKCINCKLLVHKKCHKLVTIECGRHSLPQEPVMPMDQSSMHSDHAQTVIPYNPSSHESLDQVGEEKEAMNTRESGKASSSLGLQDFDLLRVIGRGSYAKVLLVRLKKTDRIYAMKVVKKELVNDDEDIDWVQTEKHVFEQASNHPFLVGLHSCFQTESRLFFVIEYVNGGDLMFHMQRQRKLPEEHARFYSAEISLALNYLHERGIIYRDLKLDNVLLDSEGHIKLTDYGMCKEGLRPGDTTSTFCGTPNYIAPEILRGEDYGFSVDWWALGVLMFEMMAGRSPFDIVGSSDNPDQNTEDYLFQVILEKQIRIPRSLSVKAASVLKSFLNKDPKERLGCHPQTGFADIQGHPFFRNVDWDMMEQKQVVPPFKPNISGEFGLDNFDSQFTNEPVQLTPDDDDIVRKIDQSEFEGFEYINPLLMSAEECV

Row | Structure (SMILES) | Kd (CHEK1) [nM] | IC50 [1] [nM] | Colony formation [2] | Colonies ([2]; 50nM, 7 day CFU assay) [colonies] | Colony formation [3] | Colony formation with IL-3, GM-CSF, or FGF2 (MV4-11 cells) | Cell surface expression of CD11b [4] | CD11b expression (OCI-AML3 cells) | inhibition at 0.1 µM (CDK5; labeling site Lys1, peptide NRETHEIVALKR) [%] | inhibition at 0.1 µM (CDK5; labeling site Lys2, peptide DLKPQNLLINR) [%] | Inhibition (CHED) [%] | inhibition at 0.1 µM (MELK) [%] | inhibition at 0.1 µM (p38b) [%] | Inhibition (PCTAIRE2, PCTAIRE3) [%] | inhibition at 0.1 µM (PFTAIRE2) [%] | inhibition at 0.1 µM (PKCd) [%] | inhibition at 0.1 µM (PKCi; labeling site Lys1, peptide IYAMKVVK) [%] | inhibition at 0.1 µM (PKCi; labeling site Lys2, peptide DLKLDNVLLDSEGHIK) [%]
1 | CN1CCN(Cc2ccc(Nc3ncc(Cl)c(Nc4ccccc4S(=O)(=O)N(C)C)n3)cc2)CC1 [TP-0903] | 24 | 300 | inhibited colony formation | 0 | inhibited colony formation | significantly inhibited colony formation | increased | increase | 57 | 55.5 | 14.4 | 13.5 | -9.9 | 89.6 | 28.4 | -22.5 | 9.2 | 8.9
2 | CCc1nc(C(N)=O)c(Nc2ccc(N3CCC(N4CCN(C)CC4)CC3)c(OC)c2)nc1NC1CCOCC1 [Gilteritinib, gilteritinib] | – | 2600 | modest activity | – | no activity | partially rescued | – | – | – | – | – | – | – | – | – | – | – | –
